Experimental data published in ChEMBL document CHEMBL5724806, “Unraveling interindividual differences and functional consequences of gut microbial metabolism of immunosuppressants” (2024).

Columns and labels:
Assay type in all cases: ADME
[1] = (§1) The drug is tested on Bifidobacterium adolescentis strain: DSM20083 for biotransformation under anaerobic condition. The drug concentrations were measured over 6 timepoints collected between 0 and 12 hours of incubation by liquid-chromatography-coupled mass spectrometry (LC–MS); design: dose 5 uM, timepoint 0, 1.5, 3, 6, 9, 12 hours; settings: 5 µM
[2] = The drug is tested on Bacteroides caccae strain: DSM19024 for biotransformation under anaerobic condition. The drug concentrations were measured over 6 timepoints collected between 0 and 12 hours of incubation by liquid-chromatography-coupled mass spectrometry (LC–MS); design: dose 5 uM, timepoint 0, 1.5, 3, 6, 9, 12 hours; settings: 5 µM
[3] = The drug is tested on Bacteroides stercoris strain: HM 1036 for biotransformation under anaerobic condition. The drug concentrations were measured over 6 timepoints collected between 0 and 12 hours of incubation by liquid-chromatography-coupled mass spectrometry (LC–MS); design: dose 5 uM, timepoint 0, 1.5, 3, 6, 9, 12 hours; settings: 5 µM
[4] = The drug is tested on Parabacteroides merdae strain: DSM19495 for biotransformation under anaerobic condition. The drug concentrations were measured over 6 timepoints collected between 0 and 12 hours of incubation by liquid-chromatography-coupled mass spectrometry (LC–MS); design: dose 5 uM, timepoint 0, 1.5, 3, 6, 9, 12 hours; settings: 5 µM
[5] = The drug is tested on Prevotella copri strain: DSM18205 for biotransformation under anaerobic condition. The drug concentrations were measured over 6 timepoints collected between 0 and 12 hours of incubation by liquid-chromatography-coupled mass spectrometry (LC–MS); design: dose 5 uM, timepoint 0, 1.5, 3, 6, 9, 12 hours; settings: segatella copri, 5 µM
[6] = The drug is tested on Clostridium scindens strain: DSM5676 for biotransformation under anaerobic condition. The drug concentrations were measured over 6 timepoints collected between 0 and 12 hours of incubation by liquid-chromatography-coupled mass spectrometry (LC–MS); design: dose 5 uM, timepoint 0, 1.5, 3, 6, 9, 12 hours; settings: 5 µM
[7] = The drug is tested on Coprococcus comes strain: ATCC27758 for biotransformation under anaerobic condition. The drug concentrations were measured over 6 timepoints collected between 0 and 12 hours of incubation by liquid-chromatography-coupled mass spectrometry (LC–MS); design: dose 5 uM, timepoint 0, 1.5, 3, 6, 9, 12 hours; settings: 5 µM
[8] = The drug is tested on Dorea formicigenerans strain: DSM3992 for biotransformation under anaerobic condition. The drug concentrations were measured over 6 timepoints collected between 0 and 12 hours of incubation by liquid-chromatography-coupled mass spectrometry (LC–MS); design: dose 5 uM, timepoint 0, 1.5, 3, 6, 9, 12 hours; settings: 5 µM
[9] = The drug is tested on Eubacterium eligens strain: DSM3376 for biotransformation under anaerobic condition. The drug concentrations were measured over 6 timepoints collected between 0 and 12 hours of incubation by liquid-chromatography-coupled mass spectrometry (LC–MS); design: dose 5 uM, timepoint 0, 1.5, 3, 6, 9, 12 hours; settings: lachnospira eligens, 5 µM
[10] = The drug is tested on Lactobacillus gasseri strain: DSM20243 for biotransformation under anaerobic condition. The drug concentrations were measured over 6 timepoints collected between 0 and 12 hours of incubation by liquid-chromatography-coupled mass spectrometry (LC–MS); design: dose 5 uM, timepoint 0, 1.5, 3, 6, 9, 12 hours; settings: 5 µM
[11] = The drug is tested on Streptococcus mitis strain: DSM12643 for biotransformation under anaerobic condition. The drug concentrations were measured over 6 timepoints collected between 0 and 12 hours of incubation by liquid-chromatography-coupled mass spectrometry (LC–MS); design: dose 5 uM, timepoint 0, 1.5, 3, 6, 9, 12 hours; settings: 5 µM
[12] = The drug is tested on Enterococcus faecalis strain: ATCC29212 for biotransformation under anaerobic condition. The drug concentrations were measured over 6 timepoints collected between 0 and 12 hours of incubation by liquid-chromatography-coupled mass spectrometry (LC–MS); design: dose 5 uM, timepoint 0, 1.5, 3, 6, 9, 12 hours; settings: 5 µM
[13] = (§2) The drug is tested on Actinomyces naeslundi strain: DSM43013 for biotransformation under microaerobic condition. The drug concentrations were measured over 6 timepoints collected between 0 and 12 hours of incubation by liquid-chromatography-coupled mass spectrometry (LC–MS); design: dose 5 uM, timepoint 0, 1.5, 3, 6, 9, 12 hours; settings: actinomyces naeslundii, 5 µM
[14] = The drug is tested on Alloscardovia omnicolens strain: DSM21503 for biotransformation under microaerobic condition. The drug concentrations were measured over 6 timepoints collected between 0 and 12 hours of incubation by liquid-chromatography-coupled mass spectrometry (LC–MS); design: dose 5 uM, timepoint 0, 1.5, 3, 6, 9, 12 hours; settings: 5 µM
[15] = The drug is tested on Capnocytophaga ochracea strain: DSM7271 for biotransformation under microaerobic condition. The drug concentrations were measured over 6 timepoints collected between 0 and 12 hours of incubation by liquid-chromatography-coupled mass spectrometry (LC–MS); design: dose 5 uM, timepoint 0, 1.5, 3, 6, 9, 12 hours; settings: 5 µM
[16] = The drug is tested on Lactobacillus fermentum strain: DSM20052 for biotransformation under microaerobic condition. The drug concentrations were measured over 6 timepoints collected between 0 and 12 hours of incubation by liquid-chromatography-coupled mass spectrometry (LC–MS); design: dose 5 uM, timepoint 0, 1.5, 3, 6, 9, 12 hours; settings: limosilactobacillus fermentum, 5 µM
[17] = The drug is tested on Lactobacillus ruminis strain: ATCC25644 for biotransformation under microaerobic condition. The drug concentrations were measured over 6 timepoints collected between 0 and 12 hours of incubation by liquid-chromatography-coupled mass spectrometry (LC–MS); design: dose 5 uM, timepoint 0, 1.5, 3, 6, 9, 12 hours; settings: ligilactobacillus ruminis, 5 µM
[18] = The drug is tested on Streptococcus sanguinis strain: DSM20567 for biotransformation under microaerobic condition. The drug concentrations were measured over 6 timepoints collected between 0 and 12 hours of incubation by liquid-chromatography-coupled mass spectrometry (LC–MS); design: dose 5 uM, timepoint 0, 1.5, 3, 6, 9, 12 hours; settings: 5 µM
[19] = as §1, with “the gut metagenome community of A-04 with ENA study accession number: PRJEB31790” for “Bifidobacterium adolescentis strain: DSM20083”, “7” for “6”; design: dose 5 uM, timepoint 0, 0.75, 1.5, 3, 6, 9, 12 hours; settings: 5 µM
[20] = as §1, with “the gut metagenome community of A-08 with ENA study accession number: PRJEB31790” for “Bifidobacterium adolescentis strain: DSM20083”, “7” for “6”; design: dose 5 uM, timepoint 0, 0.75, 1.5, 3, 6, 9, 12 hours; settings: 5 µM
[21] = as §1, with “the gut metagenome community of T-02 with ENA study accession number: PRJEB31790” for “Bifidobacterium adolescentis strain: DSM20083”, “7” for “6”; design: dose 5 uM, timepoint 0, 0.75, 1.5, 3, 6, 9, 12 hours; settings: 5 µM
[22] = as §1, with “the gut metagenome community of T-03 with ENA study accession number: PRJEB31790” for “Bifidobacterium adolescentis strain: DSM20083”, “7” for “6”; design: dose 5 uM, timepoint 0, 0.75, 1.5, 3, 6, 9, 12 hours; settings: 5 µM
[23] = as §2, with “the gut metagenome community of A-05 with ENA study accession number: PRJEB31790” for “Actinomyces naeslundi strain: DSM43013”, “7” for “6”; design: dose 5 uM, timepoint 0, 0.75, 1.5, 3, 6, 9, 12 hours; settings: 5 µM
[24] = as §2, with “the gut metagenome community of A-06 with ENA study accession number: PRJEB31790” for “Actinomyces naeslundi strain: DSM43013”, “7” for “6”; design: dose 5 uM, timepoint 0, 0.75, 1.5, 3, 6, 9, 12 hours; settings: 5 µM
[25] = as §2, with “the gut metagenome community of A-07 with ENA study accession number: PRJEB31790” for “Actinomyces naeslundi strain: DSM43013”, “7” for “6”; design: dose 5 uM, timepoint 0, 0.75, 1.5, 3, 6, 9, 12 hours; settings: 5 µM
[26] = as §2, with “the gut metagenome community of A-10 with ENA study accession number: PRJEB31790” for “Actinomyces naeslundi strain: DSM43013”, “7” for “6”; design: dose 5 uM, timepoint 0, 0.75, 1.5, 3, 6, 9, 12 hours; settings: 5 µM
[27] = as §2, with “the gut metagenome community of P-01 with ENA study accession number: PRJEB31790” for “Actinomyces naeslundi strain: DSM43013”, “7” for “6”; design: dose 5 uM, timepoint 0, 0.75, 1.5, 3, 6, 9, 12 hours; settings: 5 µM
[28] = as §2, with “the gut metagenome community of P-03 with ENA study accession number: PRJEB31790” for “Actinomyces naeslundi strain: DSM43013”, “7” for “6”; design: dose 5 uM, timepoint 0, 0.75, 1.5, 3, 6, 9, 12 hours; settings: 5 µM
[29] = as §2, with “the gut metagenome community of T-01 with ENA study accession number: PRJEB31790” for “Actinomyces naeslundi strain: DSM43013”, “7” for “6”; design: dose 5 uM, timepoint 0, 0.75, 1.5, 3, 6, 9, 12 hours; settings: 5 µM
[30] = as §2, with “the gut metagenome community of T-05 with ENA study accession number: PRJEB31790” for “Actinomyces naeslundi strain: DSM43013”, “7” for “6”; design: dose 5 uM, timepoint 0, 0.75, 1.5, 3, 6, 9, 12 hours; settings: 5 µM

Structure (SMILES)	Bacterial Biotransformation [1]	Bacterial Biotransformation [2]	Bacterial Biotransformation [3]	Bacterial Biotransformation [4]	Bacterial Biotransformation [5]	Bacterial Biotransformation [7]	Bacterial Biotransformation [8]	Bacterial Biotransformation [9]	Bacterial Biotransformation [10]	Bacterial Biotransformation [11]	Bacterial Biotransformation [12]	Bacterial Biotransformation [13]	Bacterial Biotransformation [14]	Bacterial Biotransformation [15]	Bacterial Biotransformation [16]	Bacterial Biotransformation [17]	Bacterial Biotransformation [18]	Bacterial Biotransformation [19]	Bacterial Biotransformation [20]	Bacterial Biotransformation [21]	further results
CCOc1nc2cccc(C(=O)O)c2n1Cc1ccc(-c2ccccc2-c2nnn[nH]2)cc1	Compound NOT metabolized	Compound NOT metabolized	Compound NOT metabolized	Compound NOT metabolized	Compound NOT metabolized	Compound NOT metabolized	Compound NOT metabolized	Compound NOT metabolized	Compound NOT metabolized	Compound NOT metabolized	Compound NOT metabolized	Compound NOT metabolized	Compound NOT metabolized	Compound NOT metabolized	Compound NOT metabolized	Compound NOT metabolized	Compound NOT metabolized	Compound NOT metabolized	Compound NOT metabolized	Compound NOT metabolized	Bacterial Biotransformation [6]: Compound NOT metabolized; Bacterial Biotransformation [22]: Compound NOT metabolized; Bacterial Biotransformation [23]: Compound NOT metabolized; Bacterial Biotransformation [24]: Compound NOT metabolized; Bacterial Biotransformation [25]: Compound NOT metabolized; Bacterial Biotransformation [26]: Compound NOT metabolized; Bacterial Biotransformation [27]: Compound NOT metabolized; Bacterial Biotransformation [28]: Compound NOT metabolized; Bacterial Biotransformation [29]: Compound NOT metabolized; Bacterial Biotransformation [30]: Compound NOT metabolized
C[C@@H](NCCCc1cccc(C(F)(F)F)c1)c1cccc2ccccc12	Compound NOT metabolized	Compound NOT metabolized	Compound NOT metabolized	Compound NOT metabolized	Compound NOT metabolized	Compound NOT metabolized	Compound NOT metabolized	Compound NOT metabolized	Compound NOT metabolized	Compound NOT metabolized	Compound NOT metabolized	Compound NOT metabolized	Compound NOT metabolized	Compound NOT metabolized	Compound NOT metabolized	Compound NOT metabolized	Compound NOT metabolized	Compound NOT metabolized	Compound NOT metabolized	Compound NOT metabolized	Bacterial Biotransformation [6]: Compound NOT metabolized; Bacterial Biotransformation [22]: Compound NOT metabolized; Bacterial Biotransformation [23]: Compound NOT metabolized; Bacterial Biotransformation [24]: Compound NOT metabolized; Bacterial Biotransformation [25]: Compound NOT metabolized; Bacterial Biotransformation [26]: Compound NOT metabolized; Bacterial Biotransformation [27]: Compound NOT metabolized; Bacterial Biotransformation [28]: Compound NOT metabolized; Bacterial Biotransformation [29]: Compound metabolized; Bacterial Biotransformation [30]: Compound NOT metabolized
CCOC(=O)C1=C(COCCN)NC(C)=C(C(=O)OC)C1c1ccccc1Cl (centres undefined) [AMLODIPINE]	Compound NOT metabolized	Compound NOT metabolized	Compound NOT metabolized	Compound NOT metabolized	Compound NOT metabolized	Compound NOT metabolized	Compound NOT metabolized	Compound NOT metabolized	Compound NOT metabolized	Compound NOT metabolized	Compound NOT metabolized	Compound NOT metabolized	Compound NOT metabolized	Compound NOT metabolized	Compound NOT metabolized	Compound NOT metabolized	Compound NOT metabolized	Compound NOT metabolized	Compound NOT metabolized	Compound NOT metabolized	Bacterial Biotransformation [22]: Compound NOT metabolized; Bacterial Biotransformation [23]: Compound NOT metabolized; Bacterial Biotransformation [24]: Compound NOT metabolized; Bacterial Biotransformation [25]: Compound NOT metabolized; Bacterial Biotransformation [26]: Compound NOT metabolized; Bacterial Biotransformation [27]: Compound NOT metabolized; Bacterial Biotransformation [28]: Compound NOT metabolized; Bacterial Biotransformation [29]: Compound NOT metabolized; Bacterial Biotransformation [30]: Compound NOT metabolized
